One block for each compound: values may come before it. Active and inactive are the calls of the source. The rule behind the calls is not given here.
How the values were obtained:
[1] = target: Protein cereblon/Phosphatidylinositol 4,5-bisphosphate 3-kinase catalytic subunit gamma isoform (Homo sapiens, UniProt P48736+Q96SW2); assay: PROTAC activity at CRBN/p110gamma (unknown origin) in Acute myeloid leukemic cell; assay type: cell-based
[2] = target: T1, Phosphatidylinositol 4,5-bisphosphate 3-kinase catalytic subunit delta isoform (Homo sapiens) (UniProt O00329); assay: Induction of p110delta degradation in human SU-DHL-6 cells at 1000 nM incubated for 24 hrs by Western blot analysis; assay type: cell-based
T1 sequence (whole entry): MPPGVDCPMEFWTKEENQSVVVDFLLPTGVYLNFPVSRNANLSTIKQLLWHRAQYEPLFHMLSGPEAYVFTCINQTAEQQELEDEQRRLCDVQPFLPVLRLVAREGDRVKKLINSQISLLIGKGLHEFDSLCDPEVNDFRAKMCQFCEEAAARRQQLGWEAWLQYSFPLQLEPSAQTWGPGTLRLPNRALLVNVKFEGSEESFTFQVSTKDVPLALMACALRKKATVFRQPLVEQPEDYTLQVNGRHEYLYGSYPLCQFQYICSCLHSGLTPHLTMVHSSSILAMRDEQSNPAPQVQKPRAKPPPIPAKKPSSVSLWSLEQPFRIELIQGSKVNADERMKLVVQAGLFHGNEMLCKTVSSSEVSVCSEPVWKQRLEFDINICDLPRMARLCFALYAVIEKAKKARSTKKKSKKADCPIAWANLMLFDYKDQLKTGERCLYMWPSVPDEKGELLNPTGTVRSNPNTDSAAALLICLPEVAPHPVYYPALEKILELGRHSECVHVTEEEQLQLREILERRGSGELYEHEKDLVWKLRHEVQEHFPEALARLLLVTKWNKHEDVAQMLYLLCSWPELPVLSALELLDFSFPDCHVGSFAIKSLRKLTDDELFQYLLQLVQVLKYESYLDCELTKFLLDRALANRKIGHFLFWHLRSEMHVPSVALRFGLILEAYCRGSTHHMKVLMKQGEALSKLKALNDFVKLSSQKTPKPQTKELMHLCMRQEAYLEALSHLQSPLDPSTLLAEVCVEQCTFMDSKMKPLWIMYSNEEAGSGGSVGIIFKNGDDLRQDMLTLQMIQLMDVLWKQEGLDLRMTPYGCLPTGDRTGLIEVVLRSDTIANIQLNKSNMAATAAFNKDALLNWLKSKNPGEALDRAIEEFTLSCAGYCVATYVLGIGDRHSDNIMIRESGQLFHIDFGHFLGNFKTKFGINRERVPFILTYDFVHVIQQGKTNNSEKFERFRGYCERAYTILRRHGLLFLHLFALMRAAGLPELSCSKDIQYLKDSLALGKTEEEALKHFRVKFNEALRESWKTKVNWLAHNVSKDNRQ

[3] = target: von Hippel-Lindau disease tumor suppressor/Phosphatidylinositol 4,5-bisphosphate 3-kinase catalytic subunit delta isoform (Homo sapiens) (UniProt O00329+P40337); assay: PROTAC activity at VHL/p110delta in human SU-DHL-6 cells assessed as induction of p110delta degradation at 100 nM measured after 12 hrs in presence of (2S,4R)-1-((S)-2-acetamido-3,3-dimethylbutanoyl)-4-hydroxy-N-(4-(4-methylthiazol-5-yl)benzyl)pyrrolidine-2-carboxamide by Western blot analysis; assay type: cell-based
[4] = target: Protein cereblon/Phosphatidylinositol 4,5-bisphosphate 3-kinase catalytic subunit alpha isoform (Homo sapiens, UniProt P42336+Q96SW2); assay: PROTAC activity at CRBN/p110alpha in human MDA-MB-231 cells assessed as induction of p110alpha degradation; assay type: cell-based
MDA-MB-231 = assay: Antiproliferative activity against human MDA-MB-231 cells; assay type: functional, cell-based
SU-DHL-6 [5] = assay: Antiproliferative activity against human SU-DHL-6 cells assessed as cell growth inhibition incubated for 72 hrs by MTT assay; assay type: functional
Pfeiffer = assay: Antiproliferative activity against human Pfeiffer cells assessed as cell growth inhibition incubated for 72 hrs by MTT assay; assay type: functional
SU-DHL-6 [6] = assay: Induction of apoptosis in human SU-DHL-6 cells assessed as viable cells at 1 uM incubated for 24 hrs by Annexin V-FITC/PI staining based flow cytometric analysis (reference value: 92.54 %); assay type: functional; details: read-out: Activity
SU-DHL-6 [7] = assay: Induction of apoptosis in human SU-DHL-6 cells assessed as early apoptotic cells at 1 uM incubated for 24 hrs by Annexin V-FITC/PI staining based flow cytometric analysis (reference value: 2.32 %); assay type: functional
SU-DHL-6 [8] = assay: Induction of apoptosis in human SU-DHL-6 cells assessed as late apoptotic cells at 1 uM incubated for 24 hrs by Annexin V-FITC/PI staining based flow cytometric analysis (reference value: 4.75 %); assay type: functional
SU-DHL-6 [9] = assay: Induction of apoptosis in human SU-DHL-6 cells assessed as necrotic cells at 1 uM incubated for 24 hrs by Annexin V-FITC/PI staining based flow cytometric analysis (reference value: 0.39 %); assay type: functional
SU-DHL-6 [10] = assay: Induction of apoptosis in human SU-DHL-6 cells assessed as viable cells at 10 uM incubated for 24 hrs by Annexin V-FITC/PI staining based flow cytometric analysis (reference value: 92.54 %); assay type: functional; details: read-out: Activity
SU-DHL-6 [11] = assay: Induction of apoptosis in human SU-DHL-6 cells assessed as early apoptotic cells at 10 uM incubated for 24 hrs by Annexin V-FITC/PI staining based flow cytometric analysis (reference value: 2.32 %); assay type: functional
SU-DHL-6 [12] = assay: Induction of apoptosis in human SU-DHL-6 cells assessed as late apoptotic cells at 10 uM incubated for 24 hrs by Annexin V-FITC/PI staining based flow cytometric analysis (reference value: 4.75 %); assay type: functional
SU-DHL-6 [13] = assay: Induction of apoptosis in human SU-DHL-6 cells assessed as necrotic cells at 10 uM incubated for 24 hrs by Annexin V-FITC/PI staining based flow cytometric analysis (reference value: 0.39 %); assay type: functional
SU-DHL-6 [14] = assay: Antitumor activity against human SU-DHL-6 cells xenografted in male nude mouse model assessed as tumor growth inhibition at 2 mg/kg, ip administered for 21 days relative to control; assay type: functional; details: SU-DHL-6, 504 h, time 21 day, read-out: TGI
[15] = target: T1, Phosphatidylinositol 4,5-bisphosphate 3-kinase catalytic subunit delta isoform (Homo sapiens); details: dose 100.0 nM, time 90.0 min
SU-DHL-6 [16] = assay: Inhibition of AKT phosphorylation in human SU-DHL-6 cells at 0.1 to 1 uM incubated for 24 hrs by Western blot analysis; assay type: cell-based; details: dose 0.1-1 µM
SU-DHL-6 [17] = assay: Inhibition of AKT phosphorylation in human SU-DHL-6 cells at 1 to 10000 nM incubated for 24 hrs by Western blot analysis; assay type: cell-based; details: dose 1-10000 nM
SU-DHL-6 [18] = assay: Induction of autophagy in human SU-DHL-6 cells assessed as increase in LC3-II to LC3-I ratio at 1 to 100 nM incubated for 24 hrs by Western blot analysis; assay type: functional, cell-based; details: dose 1-100 nM
SU-DHL-6 [19] = assay: Cell cycle arrest in human SU-DHL-6 cells assessed as increase in G1 phase cells incubated for 24 hrs by PI staining based flow cytometric analysis; assay type: functional; details: dose 0.01-1 µM
SU-DHL-6 [20] = assay: Cell cycle arrest in human SU-DHL-6 cells assessed as increase in G1 phase cells at 0.1 uM incubated for 24 hrs by PI staining based flow cytometric analysis; assay type: functional
SU-DHL-6 [21] = assay: Induction of apoptosis in human SU-DHL-6 cells assessed as viable cells at 0.01 uM incubated for 24 hrs by Annexin V-FITC/PI staining based flow cytometric analysis (reference value: 92.54 %); assay type: functional; details: read-out: Activity
SU-DHL-6 [22] = assay: Induction of apoptosis in human SU-DHL-6 cells assessed as early apoptotic cells at 0.01 uM incubated for 24 hrs by Annexin V-FITC/PI staining based flow cytometric analysis (reference value: 2.32 %); assay type: functional
SU-DHL-6 [23] = assay: Induction of apoptosis in human SU-DHL-6 cells assessed as late apoptotic cells at 0.01 uM incubated for 24 hrs by Annexin V-FITC/PI staining based flow cytometric analysis (reference value: 4.75 %); assay type: functional
SU-DHL-6 [24] = assay: Induction of apoptosis in human SU-DHL-6 cells assessed as necrotic cells at 0.01 uM incubated for 24 hrs by Annexin V-FITC/PI staining based flow cytometric analysis (reference value: 0.39 %); assay type: functional
SU-DHL-6 [25] = assay: Induction of apoptosis in human SU-DHL-6 cells assessed as viable cells at 0.1 uM incubated for 24 hrs by Annexin V-FITC/PI staining based flow cytometric analysis (reference value: 92.54 %); assay type: functional; details: read-out: Activity
SU-DHL-6 [26] = assay: Induction of apoptosis in human SU-DHL-6 cells assessed as early apoptotic cells at 0.1 uM incubated for 24 hrs by Annexin V-FITC/PI staining based flow cytometric analysis (reference value: 2.32 %); assay type: functional
SU-DHL-6 [27] = assay: Induction of apoptosis in human SU-DHL-6 cells assessed as late apoptotic cells at 0.1 uM incubated for 24 hrs by Annexin V-FITC/PI staining based flow cytometric analysis (reference value: 4.75 %); assay type: functional
SU-DHL-6 [28] = assay: Induction of apoptosis in human SU-DHL-6 cells assessed as necrotic cells at 0.1 uM incubated for 24 hrs by Annexin V-FITC/PI staining based flow cytometric analysis (reference value: 0.39 %); assay type: functional

Protein cereblon/Phosphatidylinositol 4,5-bisphosphate 3-kinase catalytic subunit alpha isoform, sequence (P42336 whole entry, canonical isoform): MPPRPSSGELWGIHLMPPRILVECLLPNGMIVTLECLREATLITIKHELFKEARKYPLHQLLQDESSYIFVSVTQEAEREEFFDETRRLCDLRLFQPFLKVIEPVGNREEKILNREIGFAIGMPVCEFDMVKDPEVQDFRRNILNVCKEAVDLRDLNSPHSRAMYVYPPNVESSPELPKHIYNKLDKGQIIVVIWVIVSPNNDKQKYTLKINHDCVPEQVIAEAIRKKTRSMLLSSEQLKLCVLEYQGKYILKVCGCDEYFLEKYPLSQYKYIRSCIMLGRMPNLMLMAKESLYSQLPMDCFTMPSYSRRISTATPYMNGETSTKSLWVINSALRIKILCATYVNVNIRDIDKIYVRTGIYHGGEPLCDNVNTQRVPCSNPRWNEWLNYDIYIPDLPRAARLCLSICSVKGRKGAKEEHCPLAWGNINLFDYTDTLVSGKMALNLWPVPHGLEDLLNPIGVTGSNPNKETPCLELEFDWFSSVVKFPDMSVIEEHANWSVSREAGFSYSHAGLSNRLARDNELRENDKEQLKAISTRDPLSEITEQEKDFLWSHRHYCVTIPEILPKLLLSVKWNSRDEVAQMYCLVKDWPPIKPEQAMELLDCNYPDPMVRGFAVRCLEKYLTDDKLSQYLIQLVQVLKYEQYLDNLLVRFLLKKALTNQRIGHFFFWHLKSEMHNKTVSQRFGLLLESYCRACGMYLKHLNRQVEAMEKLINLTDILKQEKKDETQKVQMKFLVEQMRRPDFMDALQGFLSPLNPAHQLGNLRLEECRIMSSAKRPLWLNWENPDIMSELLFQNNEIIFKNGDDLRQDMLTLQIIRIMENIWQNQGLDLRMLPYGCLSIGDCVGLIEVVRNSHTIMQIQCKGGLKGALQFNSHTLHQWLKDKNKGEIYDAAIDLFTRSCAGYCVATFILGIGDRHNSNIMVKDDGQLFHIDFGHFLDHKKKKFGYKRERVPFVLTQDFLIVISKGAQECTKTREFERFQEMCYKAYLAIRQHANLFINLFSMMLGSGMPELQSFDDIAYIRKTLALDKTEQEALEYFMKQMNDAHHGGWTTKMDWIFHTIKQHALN
Protein cereblon/Phosphatidylinositol 4,5-bisphosphate 3-kinase catalytic subunit alpha isoform, sequence (Q96SW2 whole entry, canonical isoform): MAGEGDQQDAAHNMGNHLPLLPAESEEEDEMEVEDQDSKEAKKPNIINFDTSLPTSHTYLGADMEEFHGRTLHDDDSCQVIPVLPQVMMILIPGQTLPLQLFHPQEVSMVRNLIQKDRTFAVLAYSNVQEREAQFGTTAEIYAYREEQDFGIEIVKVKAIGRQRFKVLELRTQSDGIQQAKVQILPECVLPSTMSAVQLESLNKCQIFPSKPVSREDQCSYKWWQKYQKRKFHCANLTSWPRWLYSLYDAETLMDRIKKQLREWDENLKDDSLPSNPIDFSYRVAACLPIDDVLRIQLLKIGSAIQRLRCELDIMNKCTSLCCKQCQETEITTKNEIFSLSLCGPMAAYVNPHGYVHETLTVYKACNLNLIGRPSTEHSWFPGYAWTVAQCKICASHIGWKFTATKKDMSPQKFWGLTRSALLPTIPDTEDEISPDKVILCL
von Hippel-Lindau disease tumor suppressor/Phosphatidylinositol 4,5-bisphosphate 3-kinase catalytic subunit delta isoform (Homo sapiens), sequence (P40337 whole entry, looked up, one chain of several, canonical isoform): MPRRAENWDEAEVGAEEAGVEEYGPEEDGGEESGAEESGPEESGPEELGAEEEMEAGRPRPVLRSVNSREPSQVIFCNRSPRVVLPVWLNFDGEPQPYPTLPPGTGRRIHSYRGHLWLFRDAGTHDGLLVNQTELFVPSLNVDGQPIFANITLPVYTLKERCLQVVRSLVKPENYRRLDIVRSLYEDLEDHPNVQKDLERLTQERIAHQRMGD
Protein cereblon/Phosphatidylinositol 4,5-bisphosphate 3-kinase catalytic subunit gamma isoform, sequence (P48736 whole entry, canonical isoform): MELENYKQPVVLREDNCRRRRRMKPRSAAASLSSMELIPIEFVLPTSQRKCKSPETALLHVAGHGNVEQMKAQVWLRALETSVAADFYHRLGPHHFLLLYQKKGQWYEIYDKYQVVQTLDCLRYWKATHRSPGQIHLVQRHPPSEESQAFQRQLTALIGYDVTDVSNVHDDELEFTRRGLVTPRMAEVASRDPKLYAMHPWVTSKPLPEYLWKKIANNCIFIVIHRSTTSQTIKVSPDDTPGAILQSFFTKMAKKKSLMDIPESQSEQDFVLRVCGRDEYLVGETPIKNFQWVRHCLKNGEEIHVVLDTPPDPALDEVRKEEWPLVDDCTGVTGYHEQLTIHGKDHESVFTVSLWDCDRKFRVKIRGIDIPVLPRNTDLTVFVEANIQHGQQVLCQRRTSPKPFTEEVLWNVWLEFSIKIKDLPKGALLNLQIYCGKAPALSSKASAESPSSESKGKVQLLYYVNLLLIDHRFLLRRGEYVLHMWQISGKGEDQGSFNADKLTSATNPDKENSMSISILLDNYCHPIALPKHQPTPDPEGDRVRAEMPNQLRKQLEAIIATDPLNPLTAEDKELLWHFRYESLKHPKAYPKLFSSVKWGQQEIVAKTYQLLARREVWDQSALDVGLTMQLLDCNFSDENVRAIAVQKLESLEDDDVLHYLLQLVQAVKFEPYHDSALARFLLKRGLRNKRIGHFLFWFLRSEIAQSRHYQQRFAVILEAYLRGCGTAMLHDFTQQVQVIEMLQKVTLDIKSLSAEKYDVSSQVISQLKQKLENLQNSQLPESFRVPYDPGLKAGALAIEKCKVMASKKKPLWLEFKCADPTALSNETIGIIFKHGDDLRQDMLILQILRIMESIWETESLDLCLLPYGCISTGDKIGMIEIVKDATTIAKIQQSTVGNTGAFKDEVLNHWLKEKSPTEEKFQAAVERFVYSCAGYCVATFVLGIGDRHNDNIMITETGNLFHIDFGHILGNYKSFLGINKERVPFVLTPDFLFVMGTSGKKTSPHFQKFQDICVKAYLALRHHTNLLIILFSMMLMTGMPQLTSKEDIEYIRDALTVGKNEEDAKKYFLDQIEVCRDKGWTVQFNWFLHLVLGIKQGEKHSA
Protein cereblon/Phosphatidylinositol 4,5-bisphosphate 3-kinase catalytic subunit gamma isoform, sequence (Q96SW2 whole entry, canonical isoform): as the sequence (Q96SW2 whole entry, canonical isoform) above

SMILES: Cc1cc(-c2sc(NC(=O)CCCC(=O)NCCCCCCCC(=O)Nc3cccc4c3C(=O)N(C3CCC(=O)NC3=O)C4=O)nc2C)cc2c1C(=O)N([C@H](C)C1CC1)C2 (stereo partly specified)
- DC50 [1]: > 0.1 µM

SMILES: COc1c(OCCOCCOCCCCCc2cn(CCCCCNc3cccc4c3C(=O)N(C3CCC(=O)NC3=O)C4=O)nn2)ccc2c1N=C(NC(=O)c1cnc(N)nc1)N1CCN=C21 (stereo unspecified)
- DC50 [4]: 0.005 µM
- IC50 (MDA-MB-231): 0.0868 µM

SMILES: CC[C@H](Nc1ncnc2[nH]cnc12)c1nc2cccc(F)c2c(=O)n1-c1ccccc1 [IDELALISIB]
- GI50 (SU-DHL-6 [5]): 0.25 µM
- GI50 (Pfeiffer): 8.55 µM
- viability at 1 µM (SU-DHL-6 [6]): 91.7%
- Activity (SU-DHL-6 [7]): 3.25%
- Activity (SU-DHL-6 [8]): 4.89%
- Activity (SU-DHL-6 [9]): 0.18%
- viability at 10 µM (SU-DHL-6 [10]): 80.1%
- Activity (SU-DHL-6 [11]): 8.2%
- Activity (SU-DHL-6 [12]): 11.55%
- Activity (SU-DHL-6 [13]): 0.13%
- inhibition in vivo at 2 mg/kg (SU-DHL-6 [14]): 36.3%
- inhibition [15]: 81%

Now from value to compound, other results behind:

- Activity [2]: < 20%
SMILES: COc1ncc(-c2ccc3ncnc(N[C@H]4CCN(C(=O)C5CCOCC5)C4)c3n2)cc1C(=O)Oc1ccccc1
- Activity [3]: Not active; Formation Of Ternary Complex Plays A Pivotal Factor In Degradation

- GI50 (SU-DHL-6 [5]): 0.2 µM
SMILES: COc1ncc(-c2ccc3ncnc(N[C@H]4CCN(C(=O)C5CCN(CCCCCCCCCC(=O)N[C@H](C(=O)N6C[C@H](O)C[C@H]6C(=O)NCc6ccc(-c7scnc7C)cc6)C(C)(C)C)CC5)C4)c3n2)cc1C(=O)Oc1ccccc1
- inhibition (SU-DHL-6 [16]): Active
- GI50 (Pfeiffer): 0.37 µM
- inhibition (SU-DHL-6 [17]): Active
- Activity (SU-DHL-6 [18]): Active
- Activity (SU-DHL-6 [19]): Dose-dependent-effect
- Activity (SU-DHL-6 [20]): Active; More Potent Than 10 Um Idelalisib
- viability at 1 µM (SU-DHL-6 [6]): 20.4%
- Activity (SU-DHL-6 [7]): 1.16%
- Activity (SU-DHL-6 [8]): 72.97%
- Activity (SU-DHL-6 [9]): 5.5%
- viability at 0.01 µM (SU-DHL-6 [21]): 92.4%
- Activity (SU-DHL-6 [22]): 2.73%
- Activity (SU-DHL-6 [23]): 4.79%
- Activity (SU-DHL-6 [24]): 0.11%
- viability at 0.1 µM (SU-DHL-6 [25]): 90.1%
- Activity (SU-DHL-6 [26]): 2.29%
- Activity (SU-DHL-6 [27]): 7.29%
- Activity (SU-DHL-6 [28]): 0.31%

Source: ChEMBL document CHEMBL6134931, “Lysine-Targeted Covalent Strategy Leading to the Discovery of Novel Potent PROTAC-Based PI3Kδ Degraders” (J Med Chem, 2025)
